Laboratory results taken from publication PMC4786417, “Ternatin and improved synthetic variants kill cancer cells by targeting the elongation factor-1A ternary complex” (eLife, 2015).

Key:
[1] = test system: 50-kDa protein (eEF1A) in HEK293T cell lysates; test: Photo-affinity labeling of cell lysates with probe 5; type: binding; settings: competitor 10 min before 5 (2 μM) 20 min, UV, TAMRA-azide click
Experimental: Lysates were prepared from HEK293T cells by washing a monolayer of cells once with ice-cold PBS and briefly freezing at –80°C. Lysis buffer (25 mM HEPES-KOH pH 7.3, 100 mM KOAc, 5 mM MgOAc2, 1 mM TCEP, 1 mM PMSF, Roche EDTA-free complete protease inhibitor) was added, and cells were detached with a cell scraper. Crude lysates were clarified by centrifugation (15 min at 14,000 rpm), protein was quantified by Bradford assay, and the protein concentration was brought to 1.5 mg/mL with lysis buffer. Lysates were processed for photo-labeling as described below. For samples treated with RNase A, RNase A (Roche) was added to lysates (10 mg/mL final concentration) and incubated for 20 min at RT.
Photo-labeling experiments were preformed essentially as described ([MacKinnon and Taunton, 2009]; [MacKinnon et al., 2007]). Reactions (100 μL) were treated with DMSO (1 μL) or competitor in DMSO as 100X stocks and incubated for 10 min at RT, then treated with photo-probe 5 and incubated for 20 min. Reactions were transferred to 96-well plates and irradiated with long-wave UV light (λmax = 355 nm, 1000 W, 90 s). […] Gels were scanned for TAMRA fluorescence (532 nm excitation laser, 568 nm emission measured with LPG filter) on a Typhoon FLA 9000 scanner (GE Life Sciences).

[2] = test system: translation initiation/elongation in HeLa cells; test: Ribosome/polysome profiles; type: cell-based; settings: 4 (5 μM) or cycloheximide (100 μg/mL) 15 min, then harringtonine 2 μg/mL 20 min
Experimental: HeLa cells grown to 80% confluence in 10-cm dishes were treated with DMSO or 4 (5 μM) for 20 min (Figure 2c, left panel), or were first treated with DMSO, 4 (5 μM), or cycloheximide (CHX, 100 μg/mL, Sigma, St. Louis, MO) for 15 min, followed by harringtonine (2 μg/mL, LKT Laboratories, St. Paul, MN) for 20 min. Following treatment, dishes were placed on ice, media aspirated, and cells were washed once with ice-cold PBS. Cells were scraped into 400 μL lysis buffer (20 mM Tris-HCl pH 7.5, 150 mM NaCl, 5 mM MgCl2, 1 mM DTT, 1% Triton X-100, 100 μg/mL CHX). Lysates were incubated for 10 min on ice, then passed through a 26-G needle 5 times. Samples were clarified by centrifugation at 14,000 rpm for 10 min at 4°C. Lysates were applied to 10–50% sucrose gradients (prepared in 20 mM Tris-HCl pH 7.5, 150 mM NaCl, 5 mM MgCl2, 1 mM DTT, 100 μg/mL CHX), followed by centrifugation at 35,000 rpm for 3 hr in a SW41 rotor at 4°C. Ribosome/polysome profiles were obtained by flowing the gradient top to bottom through an in-line spectrometer (254 nm, EM-1 Econo UV Monitor, BioRad, Hercules, CA).

adipogenesis = settings: ref Shimokawa et al., 2008b; cited from earlier work
Experimental: Ternatin (1, Figure 1a) is an N-methylated cyclic heptapeptide that inhibits adipogenesis at low nanomolar concentrations (EC50 20 nM) and becomes cytotoxic at ten-fold higher concentrations ([Shimokawa et al., 2008a]). […] Motivating the current study, ternatin's molecular target and mechanism of action were completely unknown. While searching for cyclic peptides that, like ternatin, incorporate a β-hydroxy leucine, we found a paten ...

[3] = test system: global protein synthesis in HCT116 cells; test: 35S-methionine incorporation; type: cell-based; settings: 5 hr compound then 35S-Met 1 hr, autoradiography / scintillation counting after TCA precipitation (mean ± SEM, n = 3)
Experimental: HCT116 cells at 80% confluence in 12-well plates were incubated with compounds for 5 hr at 37°C. The cell culture media was replaced with methionine- and cysteine-free DMEM with the appropriate amount of compound. ^35S-methionine (PerkinElmer EasyTag, 40 μCi/well) was added and cells were incubated for 1 hr. Subsequently, media was aspirated and cells were washed twice with ice-cold phosphate-buffered saline (PBS). For samples analyzed by SDS-PAGE/autoradiography (Figure 2a), cells were lysed in buffer (PBS, 0.5% Triton X-100, Roche complete protease inhibitor cocktail, Roche, Indianapolis, IN) and protein content was normalized by Bradford assay. Dried gels were exposed to a storage phosphor screen (Amersham Biosciences, UK) overnight and scanned with a Typhoon imager (GE Life Sciences, Pittsburgh, PA). Bulk incorporation measurements (Figure 2b) were made by treating cells with cold 10% trichloroacetic acid (TCA, 0.5 mL) for 10 min. Precipitated monolayers were washed with 10% TCA (2 × 0.5 mL) and solubilized in 0.2 N NaOH (0.5 mL). Aliquots (100 μL) were diluted into liquid scintillation fluid and radioactivity was quantified by scintillation counting.

HCT116 cells = test: HCT116 cell proliferation assay (alamarBlue, 72 hr); type: cell-based; settings: read-out: effect on HCT116 cell proliferation (no effect up to)
Experimental: HCT116 cells (ATCC, Manassas, VA) were maintained in McCoy’s 5A media (Gibco, Grand Island, NY) supplemented with 10% fetal bovine serum (Axenia Biologix, Dixon, CA), 100 units/mL penicillin, and 100 ug/mL streptomycin (Gibco). Mutant HCT116 cells were obtained from Dominic Hoepfner ([Krastel et al., 2015]). HEK293T cells (ATCC) and HeLa cells (ATCC) were maintained in DMEM (Gibco) supplemented with 10% fetal bovine serum, 100 units/mL penicillin, and 100 μg/mL streptomycin. All other cell lines were obtained from the Cancer Cell Line Encyclopedia collection and were maintained as described ([Barretina et al., 2012]). All cell lines were tested for mycoplasma (Lonza, CH) before use and were SNP-typed to verify that their identity matched that of the originally procured sample. […]
Growing cells were briefly trypsinized and repeatedly pipetted to produce a homogenous cell suspension. […] Fluorescence intensity was measured hourly to determine the linear range for each assay (Ex 545 nm, Em 590 nm, Spectra Max M5, Molecular Devices, Sunnyvale, CA). Proliferation curves were generated by first normalizing fluorescence intensity in each well to the DMSO-treated plate average. Normalized fluorescence intensity was plotted in GraphPad Prism (GraphPad, La Jolla, CA), and IC50 values calculated from nonlinear regression curves. […]

CO[C@H]1\C=C/C=C\C=C/C[C@H](OC(=O)[C@@H](C)NC(=O)C2CCCCC2)[C@H](C)[C@@H](O)/C(C)=C\CCc2cc(O)cc(c2O)NC(=O)C1 [ansatrienin B]
competition of labeling of the 50-kDa band by probe 5 [1]: abolished

C[C@@H]1C[C@@H]([C@H](O)CC2CC(=O)NC(=O)C2)C(=O)[C@@H](C)C1 [cycloheximide]
harringtonine-induced polysome depletion [2]: completely blocked

didemnin B
competition of labeling of the 50-kDa band by probe 5 [1]: abolished

ternatin-4-Ala [Compound 2]
biological activity (adipogenesis assay) (adipogenesis): abolished biological activity | effect on global protein synthesis (35S-methionine labeling) [3]: no effect | IC50 (HCT116 cells): > 10 µM
